The term EC50 denotes the concentration that produces a half-maximal response.

Structures are written as SMILES. Active and inactive are the calls of the source.

In ChEMBL document CHEMBL1201862, “PubChem BioAssay data set” (2004) one finds IC50 and EC50 data, which are given here for five compounds.

Experiment [1] has as its target T1, Polyadenylate-binding protein 1 (Homo sapiens, UniProt P11940). Briefly: PABP1 MLLE–PAM2 interaction inhibitors, dose response, miRNA deadenylation inhibitor project, biochemical, fluorescence polarization, Cy5-PAM2 peptide, secondary (AID 602260). The format is functional. The settings on record: read-out: IC50_Mean. Background: Polarisation of emitted light reports the rotation of a fluorescent probe.

For experiment [2], the target named is T1, Polyadenylate-binding protein 1. In words: PABP1 MLLE–PAM2 binding inhibitor potency, dose response, biochemical, fluorescence polarization, FITC-PAM2 peptide (AID 602259). The format is functional. The settings on record: read-out: IC50_Mean.
Experiment [3] deals with DNA dC->dU-editing enzyme APOBEC-3G (Homo sapiens, UniProt Q9HC16). In words: Dose Response confirmation of small molecule APOBEC3G DNA Deaminase Inhibitors via a fluorescence-based single-stranded DNA deaminase assay. [Related pubchem assays (depositor defined):AID493012, AID493028]. The format is functional.
Chain of DNA dC->dU-editing enzyme APOBEC-3G (Q9HC16 whole entry): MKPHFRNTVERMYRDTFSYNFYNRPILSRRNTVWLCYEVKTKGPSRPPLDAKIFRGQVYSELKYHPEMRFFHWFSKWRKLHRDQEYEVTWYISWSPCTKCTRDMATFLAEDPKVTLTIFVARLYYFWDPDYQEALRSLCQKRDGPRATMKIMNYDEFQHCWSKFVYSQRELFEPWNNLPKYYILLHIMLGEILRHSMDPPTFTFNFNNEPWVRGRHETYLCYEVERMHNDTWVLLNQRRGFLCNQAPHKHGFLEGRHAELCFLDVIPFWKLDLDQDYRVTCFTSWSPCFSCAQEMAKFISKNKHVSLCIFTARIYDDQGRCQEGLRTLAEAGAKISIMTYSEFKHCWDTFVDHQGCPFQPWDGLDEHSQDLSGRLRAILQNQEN
The target of experiment [4] is T2, Caspase-3 (Homo sapiens, UniProt P42574).
T2 sequence (P42574 whole entry): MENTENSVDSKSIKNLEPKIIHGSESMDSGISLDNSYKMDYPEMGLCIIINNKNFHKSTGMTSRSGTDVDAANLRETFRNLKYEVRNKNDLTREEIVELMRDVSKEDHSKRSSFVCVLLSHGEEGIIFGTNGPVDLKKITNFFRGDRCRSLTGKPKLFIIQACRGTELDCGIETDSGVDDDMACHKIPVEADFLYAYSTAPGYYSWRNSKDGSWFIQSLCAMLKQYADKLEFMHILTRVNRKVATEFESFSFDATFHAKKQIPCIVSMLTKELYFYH
In words: procaspase-3 activators, dose response, biochemical, absorbance (AID 489014).

For experiment [5], the target named is Caspase-7 (Homo sapiens, UniProt P55210). Briefly: procaspase-7 activators, dose response, counter-screen for procaspase-3 activator project, biochemical, absorbance (AID 489013). A general note: Counterscreens check selectivity or assay interference.
Chain of Caspase-7 (P55210 24-198 limits assumed): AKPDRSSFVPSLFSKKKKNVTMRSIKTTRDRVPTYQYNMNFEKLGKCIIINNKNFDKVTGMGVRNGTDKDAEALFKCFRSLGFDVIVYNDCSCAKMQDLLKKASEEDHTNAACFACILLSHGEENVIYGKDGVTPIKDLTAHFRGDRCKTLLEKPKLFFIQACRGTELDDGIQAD
Chain of Caspase-7 (P55210 207-303 limits assumed): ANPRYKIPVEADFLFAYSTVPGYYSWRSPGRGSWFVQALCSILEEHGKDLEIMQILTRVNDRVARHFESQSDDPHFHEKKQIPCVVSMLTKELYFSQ
Experiment [6] concerns the target T3, Neuropeptides B/W receptor type 1 (Homo sapiens, UniProt P48145).
T3 sequence (P48145 whole entry): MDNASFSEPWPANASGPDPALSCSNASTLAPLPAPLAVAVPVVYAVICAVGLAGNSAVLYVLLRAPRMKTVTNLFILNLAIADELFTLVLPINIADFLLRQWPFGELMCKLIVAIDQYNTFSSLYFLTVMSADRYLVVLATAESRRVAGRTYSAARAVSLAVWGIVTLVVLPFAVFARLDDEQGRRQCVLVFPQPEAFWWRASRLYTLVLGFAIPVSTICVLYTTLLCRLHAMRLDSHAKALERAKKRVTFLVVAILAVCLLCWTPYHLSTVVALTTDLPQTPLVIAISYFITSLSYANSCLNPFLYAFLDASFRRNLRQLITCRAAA
In words: GPR7 antagonist potency, late-stage follow-up, cell-based, fluorescence, dose response (AID 463251). The format is functional.

Experiment [7] addresses Melanin-concentrating hormone receptor 1 (Homo sapiens, UniProt Q99705). Briefly: Late-stage fluorescence-based counterscreen for antagonists of the G-protein coupled receptor 7 (GPR7): cell-based dose response assay to identify antagonists of the melanin-concentrating hormone receptor 1 (MCHR1). [Related pubchem assays (depositor defined):AID1861, AID1880, AID1952, AID2148, AID2251, AID2257, AID485339]. The format is functional.

Experiment [8] deals with Aryl hydrocarbon receptor (Homo sapiens, UniProt P35869). In words: Luminescence-based cell-based high throughput dose response assay for activators of the Aryl Hydrocarbon Receptor (AHR). [Related pubchem assays: 2796 (Primary screen (AHR activators in singlicate)), 2845 (Confirmation screen (AHR activators in triplicate)), 434939 (Counterscreen (PXR activators in triplicate)), 2804 (Summary (AHR activators))]. The format is ADME.
Chain of Aryl hydrocarbon receptor (P35869 whole entry): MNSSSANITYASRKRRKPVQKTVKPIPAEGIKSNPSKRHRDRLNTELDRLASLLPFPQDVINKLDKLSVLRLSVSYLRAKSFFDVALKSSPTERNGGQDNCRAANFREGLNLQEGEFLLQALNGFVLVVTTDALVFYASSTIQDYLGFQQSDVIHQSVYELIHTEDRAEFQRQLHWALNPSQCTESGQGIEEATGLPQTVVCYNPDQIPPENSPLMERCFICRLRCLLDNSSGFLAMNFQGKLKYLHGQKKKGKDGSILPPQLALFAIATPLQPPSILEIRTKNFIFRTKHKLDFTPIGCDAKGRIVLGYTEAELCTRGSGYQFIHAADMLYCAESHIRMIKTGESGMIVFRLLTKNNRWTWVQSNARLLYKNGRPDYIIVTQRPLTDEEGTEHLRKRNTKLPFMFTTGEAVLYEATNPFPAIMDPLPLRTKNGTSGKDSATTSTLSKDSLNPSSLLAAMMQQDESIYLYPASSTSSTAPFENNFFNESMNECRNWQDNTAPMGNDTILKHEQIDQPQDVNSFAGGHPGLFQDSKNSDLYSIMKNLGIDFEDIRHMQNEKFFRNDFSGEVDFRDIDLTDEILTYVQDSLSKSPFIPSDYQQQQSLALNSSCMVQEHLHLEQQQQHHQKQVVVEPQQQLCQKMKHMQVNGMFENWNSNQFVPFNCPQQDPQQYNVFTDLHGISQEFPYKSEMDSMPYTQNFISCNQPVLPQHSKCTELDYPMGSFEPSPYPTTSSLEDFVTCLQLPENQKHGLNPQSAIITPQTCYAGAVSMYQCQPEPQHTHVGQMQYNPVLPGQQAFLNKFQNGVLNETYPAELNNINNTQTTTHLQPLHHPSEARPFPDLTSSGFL

For experiment [9], the target named is Eukaryotic translation initiation factor 4E (Mus musculus, UniProt P63073). Briefly: eIF4E–eIF4G protein interaction inhibitors, dose response, biochemical, TR-FRET (AID 855).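 Also: potency for disrupting eIF4E binding to eIF4GI seen as loss of FRET.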 The format is functional. (In TR-FRET formats the signal depends on donor and acceptor labels being close together.)
Chain of Eukaryotic translation initiation factor 4E (P63073 whole entry): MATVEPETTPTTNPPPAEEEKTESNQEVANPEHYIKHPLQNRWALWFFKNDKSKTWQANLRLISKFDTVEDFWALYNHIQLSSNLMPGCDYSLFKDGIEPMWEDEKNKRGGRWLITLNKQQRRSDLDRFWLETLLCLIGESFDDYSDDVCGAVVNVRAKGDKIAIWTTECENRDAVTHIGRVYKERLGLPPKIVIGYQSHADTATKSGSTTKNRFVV

T1 sequence (P11940 whole entry): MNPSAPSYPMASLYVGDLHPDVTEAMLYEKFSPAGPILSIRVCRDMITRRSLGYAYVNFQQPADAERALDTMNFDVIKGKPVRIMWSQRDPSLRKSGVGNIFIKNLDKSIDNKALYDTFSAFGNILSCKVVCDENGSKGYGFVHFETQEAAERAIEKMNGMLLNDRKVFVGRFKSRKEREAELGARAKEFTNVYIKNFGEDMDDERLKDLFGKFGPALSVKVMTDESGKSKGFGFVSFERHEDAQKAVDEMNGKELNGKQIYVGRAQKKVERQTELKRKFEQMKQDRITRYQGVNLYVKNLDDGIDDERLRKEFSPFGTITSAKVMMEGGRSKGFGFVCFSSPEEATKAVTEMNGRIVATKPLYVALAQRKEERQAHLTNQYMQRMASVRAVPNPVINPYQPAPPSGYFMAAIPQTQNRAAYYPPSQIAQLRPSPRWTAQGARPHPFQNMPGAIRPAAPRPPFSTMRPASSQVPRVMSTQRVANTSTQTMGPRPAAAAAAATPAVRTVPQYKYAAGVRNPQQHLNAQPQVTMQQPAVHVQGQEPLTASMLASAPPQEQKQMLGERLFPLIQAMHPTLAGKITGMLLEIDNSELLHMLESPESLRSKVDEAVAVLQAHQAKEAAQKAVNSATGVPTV
Chain of Melanin-concentrating hormone receptor 1 (Q99705 whole entry): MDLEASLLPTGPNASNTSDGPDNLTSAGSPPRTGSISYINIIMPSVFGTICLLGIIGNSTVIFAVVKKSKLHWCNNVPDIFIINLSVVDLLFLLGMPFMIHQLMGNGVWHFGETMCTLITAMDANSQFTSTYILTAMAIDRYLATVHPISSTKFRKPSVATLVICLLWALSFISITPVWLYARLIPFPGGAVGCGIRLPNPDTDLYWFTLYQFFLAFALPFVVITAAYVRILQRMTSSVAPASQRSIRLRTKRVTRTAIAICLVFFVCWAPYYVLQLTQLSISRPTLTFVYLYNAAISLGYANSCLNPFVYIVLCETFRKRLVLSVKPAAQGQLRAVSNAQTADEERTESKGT

Consider `O=C(Nc1ccc(N2CCOCC2)c(S(=O)(=O)Nc2ccc(Cl)cc2)c1)c1cnccn1`, for which the IC50 is > 66 µM (inactive) in experiment [1], > 66 µM (inactive) in experiment [2] and 51.6 µM (active) in experiment [3].
Regarding `Cc1ccc(-c2cc(C(F)(F)F)c(C#N)c(SCCC#N)n2)o1`, the EC50 in [4] and in experiment [5] was > 85.2 µM (inactive) throughout.
As to `CCOc1ccc(COc2c(Cl)cnn(-c3ccc(C)cc3)c2=O)cc1OCC`, the IC50 in experiment [6] was > 20 µM (inactive).
As for `COc1cc(F)ccc1Oc1c(Cl)cnn(-c2ccc(C)cc2)c1=O`, the IC50 in experiment [7] is 9.5 µM (active); in experiment [6], 9.7 µM (active).
Consider `O=C(N/N=C/c1c[nH]c2ccccc12)C1COc2ccccc2O1` (stereo not given), for which, in experiment [8], the concentration for a half-maximal effect (EC50) was 5.67 µM (active). The IC50 in experiment [9] is > 64 µM (inactive).
